The text below walks through data of PMC8232266, “Lanolin-Based Synthetic Membranes for Transdermal Permeation and Penetration Drug Delivery Assays” (Membranes, 2021).

SMILES strings stand for the structures. “Also recorded” adds a separate entry of the source. Like-named read-outs stand apart in the source and are kept apart here. Marks after values point to notes of the source that are not given here.

The nature of series [1]: Infinite-dose kinetic permeation assay, vertical Franz diffusion cells, 5% SEL lanolin membrane. It is filed as in vitro ADME. On the procedure:
(§1) For the preparation of the membranes, the procedure described by Pullmannová, et al. was followed. […] Next, 300 µL of the lipid solution was spread onto the pre-weighed NP membranes (≈15 mg lanolin) in a three-step process. The solvent was then evaporated under a stream of N2. The lipid membranes prepared were vacuum-dried over […] in a desiccator and were stored in a fridge at 5 °C for 24 h. Prior to use, the lanolin-based membranes were then heated to 75 °C, equilibrated for 10 min, and then cooled down slowly (~3 h) to 32 °C. The last part of the cooling-heating cycle was incubation for 24 h at 32 °C. Using a skin pHmeter (Sebumeter pH 900, Courage + Khazaka, Cologne, Germany), the pH of the membranes was determined.
(§2) Lastly, the entire system was clamped shut.

A short description of series [2]: Infinite-dose kinetic permeation assay, vertical Franz diffusion cells, 5% WEL lanolin membrane. It is filed as in vitro ADME. The following applies: DS 3% / LIDO 2% in PG; for J (flux): Ord 0 model. On the procedure: as §1, §2
A short description of series [3]: Finite-dose penetration test, Franz diffusion cells, Nuclepore-SEL membrane. It is filed as in vitro ADME. The following applies: finite dose 20 µL, 24 h, Figure 1.
Series [4] in a line: Infinite-dose kinetic permeation assay, vertical Franz diffusion cells, Nuclepore membrane. It is filed as in vitro ADME. The following applies: NP, DS 3% / LIDO 2% in PG; for J (flux): Higuchi model.
Description: as §2

For series [5] the following is noted: infinite dose.

On to `O=C(O)Cc1ccccc1Nc1c(Cl)cccc1Cl` [Diclofenac Sodium, Diclofenac sodium], for which the “Kinetics of Release (best-fit model)” value in series [1] (DS 3% / LIDO 2% in PG) was “Ord 0”; in series [2] (listed as DS), “zero-order kinetics; also recorded: Ord 0”; in series [4] it was “Higuchi”; in series [5] (SKIN, DS 3% / LIDO 2% in PG) it was “Ord 0”. Also, the “J (flux)” value was 30.40 * µg/cm^2/h in series [1] (Ord 0 model, DS 3% in PG); 6.18 µg/cm^2/h in series [2]; 2307.12 * µg/cm^2/h^½ in series [4]; 3.94 µg/cm^2/h in series [5] (SKIN, Ord 0 model, DS 3% / LIDO 2% in PG). Further, the “permeation through Nuclepore-SEL membrane compared with skin” value in series [3] is on record as “insignificant difference compared with the skin”. The “permeability (percentage permeated through the skin)” value in series [5] (pig skin, at 30 h) is given as 0.83 ± 0.42%.

Take `CCN(CC)CC(=O)Nc1c(C)cccc1C` [Lidocaine, lidocaine]: the “J (flux)” value in series [1] (Higuchi model, LIDO 2% in PG) is on record as 343.05 * µg/cm^2/h^½; in series [2], 4.85 µg/cm^2/h; in series [4] it was 1360.27 * µg/cm^2/h^½. Further, the “Kinetics of Release (best-fit model)” value in series [4] is listed as “Higuchi”.
